Source: patent US4186136A, “Novel benzothienyl amino (propyl and butyl) ketones, a method of preparation thereof and their application to therapeutics” (priority 1975, dated 1980)
In brackets after ≈: the same amount, converted by molar mass. Several values for one entry are separate records, joined by “and”; a condition that tells them apart may be missing. Equal entries are not always repeated. Where two headings read alike, the source gives them in different places.

Tests used:
[1] = tested on: human blood-plaques (aggregation with collagene); assay: Inhibition of blood-plaque aggregation induced by collagene; assay type: cell-based; conditions: for inhibition at 20 µg/mL: Homo sapiens, C (X)=2×10^-5 g/ml, read-out: Inhibitory activity of the blood-plaque aggregation, COLLAGENE, a (X); for Ratio of a (X) to a (R), COLLAGENE (head drawn): X 2×10^-5 g/ml, R 2×10^-4 g/ml
From the text: (§1) The blood plaques used for these studies were human blood-plaques introduced into the test in the form of blood-plaque rich plasmas (B.P.R.P.).
(§2) These latter were obtained as water-repellent material by slow centrifugation from human blood samples.
(§3) The study of blood-plaque aggregation was made by means of an aggregate-meter with continuous agitation and graphic recording according to the conventional method. (PROST R. S., SOUVERAIN C. H., DOUMENC J., Etude de l'agregation plaquettaire a l'aide de l'agregametre de MUSTARD-Coagulation, 1971, 4, 2, 145-151).
(§4) The agents employed for inducing aggregation were diphosphoric adenosine acid (D.P.A.), 1-(3',4'-di-hydroxyphenyl)-2-methylamino ethanol (adrenaline) and collagene. All these reactants were prepared from mother solutions diluted in a Michaelis' buffer. Their concentration in the test may vary according to the affinity of the blood-plaques.
(§5) An optimum concentration is thus sought by successive tests on the same B.P.R.P.
(§6) The inhibitory activity on the aggregation was evaluated by addition of the product under study to the B.P.R.P. before introduction of the aggregating agent.
(§7) The concentrations of compounds of formula I (X) in the B.P.R.P. are: C (X)=2.5×10^-5 g/ml for aggregation with D.P.A. and adrenaline, and C (X)=2×10^-5 g/ml for collagene.
(§8) The reference product (R) is 2,6-bis (diethanolamino)-4,8-dipiperidinopyrimido[5,4-d]pyramidine (known under the trademark "Dipyridamole") used in the concentration C (R)=5×10^-4 g/ml for aggregation with D.P.A. and adrenaline and C (R)=2×10^-4 g/ml for aggregation with collagene.
(§9) The following table IV indicates the activity of some compounds of formula I: a (X) the activity of the reference product: a (R) and the different values of the ratio: [formula]

[2] = tested on: isolated heart of a gumea-pig; assay: Vaso-dilatatory activity, coronary flow of isolated perfused heart; conditions: for activation at 10 µg/mL: Locke, 37° C., read-out: Percentage flow increase P (X); for P (X) / P (R): relative to Dipyridamole, both 1×10^-5 g/ml
Method: The coronary flow is recorded, by means of an electronic device fitted with a Fleish totaliser, before and after addition of the substance X under study (concentration: 1×10^-5 g/ml), the reference product (R) being 2,6-bis (diethanolamino) 4,8-dipiperidinopyrimido[5,4-d]pyrimidine (known under the trademark "Dipyridamole") used at a concentration of 1×10^-5 g/ml.
The percentage flow increase P was calculated at the climax of the activity of X or R.

[3] = tested on: human blood-plaques (aggregation with D.P.A.); assay: Inhibition of blood-plaque aggregation induced by D.P.A.; assay type: cell-based; conditions: for Ratio of a (X) to a (R), D.P.A. (head drawn): X 2.5×10^-5 g/ml, R 5×10^-4 g/ml; for inhibition at 25 µg/mL: Homo sapiens, read-out: Inhibitory activity of the blood-plaque aggregation, D.P.A., a (X)
From the text: as §1, §2, §3, §4, §5, §6, §7, §8, §9

[4] = tested on: human blood-plaques (aggregation with adrenaline); assay: Inhibition of blood-plaque aggregation induced by adrenaline; assay type: cell-based; conditions: for inhibition at 25 µg/mL: Homo sapiens, C (X)=2.5×10^-5 g/ml, read-out: Inhibitory activity of the blood-plaque aggregation, ADRENALINE, a (X); for Ratio of a (X) to a (R), ADRENALINE (head drawn): X 2.5×10^-5 g/ml, R 5×10^-4 g/ml
From the text: as §1, §2, §3, §4, §5, §6, §7, §8, §9

rat's isolated duodenum = assay: Spasmolytic activity on isolated duodenum contracted by barium chloride (Magnus); conditions: for IC50: Rattus norvegicus, barium chloride contraction, Tyrode, 38° C., read-out: Spasmolytic activity ED 50 (X); for ED 50 (R) / ED 50 (X): relative to papaverine hydrochloride
Method: The spasmolytic activity was studied on a rat's isolated duodenum maintained in a survival medium of an aerated Tyrode solution heated to 38° C. according to the technique of Magnus (Magnus R.-Archivs ges. Physiol., 1905, 180, 1-71).
The contracting agent used was barium chloride, the reference antogonist agent being papaverine hydrochloride (R). The average activity of the compounds of formula I (X) in comparison with that of the reference agent was expressed by calculating the ratio of the 50 efficient doses (ED 50) determined graphically on logarithmic paper: [formula]
For example: a substance having a relative activity expressed by the FIG. 2 presents an activity equal to twice that of papaverine hydrochloride.

[5] = Acute toxicity, oral, mouse (LD 50, Miller and Tainter); assay type: in vivo; conditions: in vivo, death rate checked for seven days, read-out: 50% lethal dose (LD 50) (converted)
Method: The acute toxicity of the compounds of formula (I) were evaluated orally (esophagean probe) on a mouse deprived of food 18 hours before the beginning of the test. The products were placed in suspension in a solution of dilute carboxymethyl cellulose. Calculation of the 50 lethal dose (LD 50) was effected according to the method of Miller and Tainter (Miller L. C., Tainter M. L., Proc. Soc. Exptl. Biol. Med. 1944, 57, 261-264).
The death rate was checked for seven days following the treatment.
Table III gives the 50% lethal doses (LD 50) in milligrammes per kilogramme body weight.

[6] = tested on: phenylparaquinone (P.P.Q.) painful syndrome in a mouse; assay: Analgesic and anti-inflammatory activity, phenylparaquinone (P.P.Q.) painful syndrome; assay type: in vivo; conditions: for Analgesic and anti-inflammatory activity, percentage activity a(X): 50 mg/kg digestively; for a(X) / a(R), analgesic and anti-inflammatory activity: X 50 mg/kg, R (Galfenine) 25 mg/kg
Method: The intraperitoneal injection of phenylparaquinone (P.P.Q.) in a mouse causes the appearance of a painful syndrome appearing within 5 minutes of the injection and disappearing after about 30 minutes (SIEGMUND E. A., CADMUS A., LU G., J. Pharmacol. Exp. Therap. 1957, 119, 453). This painful syndrome manifests itself in the animal by a series of characteristic crises, more or less close together and fleeting, during which we can note a twisting or stretching of the body, a hollowing of the sides and a stretching of the hind legs.
It is therefore possible to note the number of crises in a given interval of time.
The preventive administration of analgesic or anti-inflammatory substances prevents the appearance of crises or reduces the frequency thereof.
The reference substance (R) used in the tests was the ester of N-(7-chloro-4 quinolyl) anthranilic acid and 2,3-dihydroxy n.propanol (known under the trademark Galfenine).
It was administered orally with a dose of 25 mg/kg.
The compounds of formula I (X) were administered digestively with a dose of 50 mg/kg.
The interval of time (t) which was chosen to evaluate the analgesic activity was between 10 and 15 minutes which is the period of maximum frequency of the crises. This activity was expressed in the following way:
n: number of crises observed in the control mice;
n': number of crises observed in mice previously treated with the reference substance (R);
n": number of crises observed in mice having received the substance (X).
The percentage activity of R is equal to [formula]
The percentage activity of X is equal to [formula]
The activity of X in relation to that of R is estimated by the ratio [formula]
For example: a compound X for which [formula] is 0.5 has an activity equal to half that of the reference product.

[7] = 1×10^-5 g/ml, coronary flow at climax of activity
[8] = crises between 10 and 15 minutes
[9] = reference product, C (R)=5×10^-4 g/ml

Structure (SMILES)	inhibition at 20 µg/mL [1] [%]	Ratio of a (X) to a (R), COLLAGENE (head drawn) [1]	activation at 10 µg/mL [2, 7] [%]	P (X) / P (R) [2]	Ratio of a (X) to a (R), D.P.A. (head drawn) [3]	inhibition at 25 µg/mL ([3]; C (X)=2.5×10^-5 g/ml) [%]	inhibition at 25 µg/mL [4] [%]	Ratio of a (X) to a (R), ADRENALINE (head drawn) [4]	IC50 (rat's isolated duodenum) [µg/mL]	ED 50 (R) / ED 50 (X) (rat's isolated duodenum)	LD50 at 168 h ([5]; po) [mg/kg]	Analgesic and anti-inflammatory activity, percentage activity a(X) [6, 8] [%]	a(X) / a(R), analgesic and anti-inflammatory activity [6]	Inhibitory activity of the blood-plaque aggregation, D.P.A., a (X) ([3]; C (X)=2.5×10^-5 g/ml) [%]	Inhibitory activity of the blood-plaque aggregation, COLLAGENE, a (R) ([1]; reference product, C (R)=2×10^-4 g/ml) [%]	Percentage flow increase P (R) ([2]; reference product, 1×10^-5 g/ml, coronary flow at climax of activity)	Inhibitory activity of the blood-plaque aggregation, D.P.A., a (R) [3, 9]	Inhibitory activity of the blood-plaque aggregation, ADRENALINE, a (R) [4, 9]	LD50 at 168 h [5] [mg/kg]	Analgesic and anti-inflammatory activity, percentage activity a(R) ([6]; reference substance, 25 mg/kg orally, crises between 10 and 15 minutes, 25 mg/kg)
CCCN(CCC)CCCC(=O)c1csc2ccccc12 [Compound 11]	12	3.3×10^-1	41	7.75 × 10^-1	1.8×10^-1	10	51	5.8×10^-1	1.05 (≈ 3.46 µM)	6.2	1100	48	6.5 × 10^-1							
CC(C)N(CCCC(=O)c1csc2ccccc12)C(C)C [Compound 12]	12	2.3×10^-1	33	6.25 × 10^-1		29	80	9.1×10^-1	1.35 (≈ 4.45 µM)	4.8	500	68	1.5							
O=C(CCCN1CCCC1)c1csc2ccccc12 [Compound 13]					2.3×10^-1	18	84	1.1	2.25 (≈ 8.23 µM)	1.55	760									
O=C(CCCN1CCCCC1)c1csc2ccccc12 [Compound 14]							42	5.5×10^-1			850	39	5.3 × 10^-1							
O=C(CCCN1CCCCCC1)c1csc2ccccc12 [Compound 15]			172	2.42			82	9.5×10^-1	3 (≈ 9.95 µM)	1.6	950	51	1.13	17						
OCCN(CCO)c1nc(N2CCCCC2)c2nc(N(CCO)CCO)nc(N3CCCCC3)c2n1 [Dipyridamole, 2,6-bis (diethanolamino)-4,8-dipiperidinopyrimido[5,4-d]pyramidine, reference compound]															36	43% and 53% and 71%	87% and 53% and 79% and 55% and 85%	91% and 78% and 86% and 88% and 77%	2150	
O=C(OCC(O)CO)c1ccccc1Nc1ccnc2cc(Cl)ccc12 (centres unmarked) [Galfenine, ester of N-(7-chloro-4 quinolyl) anthranilic acid and 2,3-dihydroxy n.propanol, reference compound]																				75% and 77% and 45% and 74%
